# Assay results taken from US20100136541A1, “IDENTIFICATION AND VERIFICATION OF METHYLATION MARKER SEQUENCES” (Siemens Healthcare Diagnostics Inc., priority 2003, published 2010).
# Tested on: SCNN1B CpG sites
# Assay: Bisulfite sequencing of CpG sites, cell lines treated vs. untreated
# Type: cell-based, human
# Parameters: unit not given here
# Procedure: Samples: Paired tumor and adjacent normal tissues from twelve colorectal cancer patients were collected under institutional review board (IRB) approval with patient consent. Tissues were flash frozen in LN2 and stored at −80° C. prior to DNA extraction. All tissues were blinded. Cell lines: A panel of five colorectal cancer cell lines was used. Cells were grown to ˜50% confluence in the appropriate culture medium prior to treatment with 5-aza-2′-deoxycytidine. Optimal concentrations and incubation times (Table 4) were determined by assaying for reduction of p16 promoter methylation using MSP. Cells were harvested, pelleted by centrifugation, and washed twice in Hanks buffered saline solution. Cell pellets were stored at −80° C. Control cells were maintained simultaneously without 5-aza-2′-deoxycytidine treatment. DNA extraction: DNA was purified from tissues and cell lines using the QIAGEN DNeasy® Tissue Kit. Approximately 25-35 mg of each tissue was pulverized under liquid nitrogen before extraction. Elution volume for tissues was 2004. A final volume of […] of cell line DNA was extracted from 15 to 254 of each packed cell pellet (between 10^6-10^7 cells). Purified DNA was stored at −20° C. Bisulfite modification: Modification was performed according to the Frommer method (See Frommer M, et al., PNAS, 89: 1827-1831 (1992).) One μg genomic DNA was diluted into 50 μl with distilled H2O, 5.5 μl of 2M NaOH was added, and the mixture incubated at 37° C. for 10 minutes (to create single stranded DNA). Thirty μl of freshly prepared 10 mM hydroquinone (Sigma) was added to each tube. Five hundred twenty μl of freshly prepared 3M sodium bisulfite (Sigma S-8890), pH 5.0 was then added. Reagents were thoroughly mixed and then covered with mineral oil and incubated at 50° C. for 16 hours. After removing the oil, 1 ml of Wizard DNA Cleanup Resin (Promega A7280) was added to each tube prior to applying the mixture to miniprep column in the DNA Wizard Cleanup kit. The column was washed with 2 ml of 80% isopropanol, and eluted with 50 μl of heated water (60-70° C.). 5.5 μl of 3 M NaOH to was added to each tube, and incubated at room temperature for 5 minutes. Then 1 μl glycogen was added as carrier, 33 μl of 10 M NH4Ac, and 3 volumes of ethanol for DNA precipitation. The pellet was spun down and washed with 70% ethanol, dried and resuspended in 20 μl water. In some instances, the EZ DNA Methylation Kit (Zymo Research) which uses a simplified version of the Frommer method was used. In these cases, 1 μg of genomic DNA was denatured in 0.3M NaOH for 15 minutes at 37° C. followed by incubation at 50° C. for 16 hours in 0.5 mM hydroquinone and a saturated solution of sodium bisulfite at pH 5. Modified DNA was bound to the Zymo column membrane, then desulfonated with 0.3M NaOH for 15 minutes at room temperature. DNA was washed and resuspended with 50 μL 10 mM Tris-HCl-0.1 mM EDTA, pH 7.5 and stored at −20° C. The bisulfite reaction results in conversion of an unmethylated cytosine to uracil. Methylated cytosine remains unchanged after the bisulfite reaction. The resulting bisulfite modified DNA is single stranded. PCR amplification for sequencing: Primers were designed to amplify both methylated and unmethylated fragments of DNA (Table 5). Five μL of modified DNA ( 1/10 of modification reaction) was amplified first in a 254, reaction volume containing 10 mM Tris-HCl pH8.3, 50 mM KCl, 1.5 mM to 2 mM MgCl2, (Applied Biosystems), 0.25 mM each dNTP, 0.5 unit AmpliTaq (Applied Biosystems), and sequencing primers (each at 200 nM). Cycling conditions were 10 minutes at 95° C., 40 cycles of 30 seconds at 95° C., 30 seconds at 54-62° C., 30 seconds at 72° C., subsequently followed by extension for 5 minutes at 72° C.
# Reaction products were purified either by the shrimp-alkaline phosphatase-Exol standard method or on the Qiagen Qiaquick PCR clean-up column and eluted in 30 μL 10 mM Tris-HCl, pH8.5. […]
smiles,measurement,setting,value
Nc1ncn([C@H]2C[C@H](O)[C@@H](CO)O2)c(=O)n1 [5-aza-2′-deoxycytidine],SCNN1B sequencing result (methylation) at CpG site #179,HT29 treated,70
same,SCNN1B sequencing result (methylation) at CpG site #192,HT29 treated,90
same,SCNN1B sequencing result (methylation) at CpG site #203,HT29 treated,36
same,SCNN1B sequencing result (methylation) at CpG site #223,HT29 treated,79
same,SCNN1B sequencing result (methylation) at CpG site #228,HT29 treated,74
same,SCNN1B sequencing result (methylation) at CpG site #230,HT29 treated,67
same,SCNN1B sequencing result (methylation) at CpG site #234,HT29 treated,69
same,SCNN1B sequencing result (methylation) at CpG site #238,HT29 treated,75
same,SCNN1B sequencing result (methylation) at CpG site #245,HT29 treated,65
same,SCNN1B sequencing result (methylation) at CpG site #267,HT29 treated,55
same,SCNN1B sequencing result (methylation) at CpG site #295,HT29 treated,26
same,SCNN1B sequencing result (methylation) at CpG site #179,LS123 treated,56
same,SCNN1B sequencing result (methylation) at CpG site #192,LS123 treated,63
same,SCNN1B sequencing result (methylation) at CpG site #203,LS123 treated,42
same,SCNN1B sequencing result (methylation) at CpG site #223,LS123 treated,90
same,SCNN1B sequencing result (methylation) at CpG site #228,LS123 treated,87
same,SCNN1B sequencing result (methylation) at CpG site #230,LS123 treated,82
same,SCNN1B sequencing result (methylation) at CpG site #234,LS123 treated,80
same,SCNN1B sequencing result (methylation) at CpG site #238,LS123 treated,77
same,SCNN1B sequencing result (methylation) at CpG site #245,LS123 treated,81
same,SCNN1B sequencing result (methylation) at CpG site #267,LS123 treated,59
same,SCNN1B sequencing result (methylation) at CpG site #295,LS123 treated,23
same,SCNN1B sequencing result (methylation) at CpG site #179,LS174T treated,7
same,SCNN1B sequencing result (methylation) at CpG site #192,LS174T treated,56
same,SCNN1B sequencing result (methylation) at CpG site #203,LS174T treated,40
same,SCNN1B sequencing result (methylation) at CpG site #223,LS174T treated,75
same,SCNN1B sequencing result (methylation) at CpG site #228,LS174T treated,81
same,SCNN1B sequencing result (methylation) at CpG site #230,LS174T treated,72
same,SCNN1B sequencing result (methylation) at CpG site #234,LS174T treated,70
same,SCNN1B sequencing result (methylation) at CpG site #238,LS174T treated,55
same,SCNN1B sequencing result (methylation) at CpG site #245,LS174T treated,40
same,SCNN1B sequencing result (methylation) at CpG site #267,LS174T treated,47
same,SCNN1B sequencing result (methylation) at CpG site #295,LS174T treated,7
same,SCNN1B sequencing result (methylation) at CpG site #179,SW480 treated,80
same,SCNN1B sequencing result (methylation) at CpG site #192,SW480 treated,44
same,SCNN1B sequencing result (methylation) at CpG site #203,SW480 treated,21
same,SCNN1B sequencing result (methylation) at CpG site #223,SW480 treated,89
same,SCNN1B sequencing result (methylation) at CpG site #228,SW480 treated,83
same,SCNN1B sequencing result (methylation) at CpG site #230,SW480 treated,80
same,SCNN1B sequencing result (methylation) at CpG site #234,SW480 treated,80
same,SCNN1B sequencing result (methylation) at CpG site #238,SW480 treated,87
same,SCNN1B sequencing result (methylation) at CpG site #245,SW480 treated,51
same,SCNN1B sequencing result (methylation) at CpG site #267,SW480 treated,57
same,SCNN1B sequencing result (methylation) at CpG site #295,SW480 treated,69
same,SCNN1B sequencing result (methylation) at CpG site #179,SW620 treated,59
same,SCNN1B sequencing result (methylation) at CpG site #192,SW620 treated,88
same,SCNN1B sequencing result (methylation) at CpG site #203,SW620 treated,30
same,SCNN1B sequencing result (methylation) at CpG site #223,SW620 treated,93
same,SCNN1B sequencing result (methylation) at CpG site #228,SW620 treated,95
same,SCNN1B sequencing result (methylation) at CpG site #230,SW620 treated,94
same,SCNN1B sequencing result (methylation) at CpG site #234,SW620 treated,91
same,SCNN1B sequencing result (methylation) at CpG site #238,SW620 treated,86
same,SCNN1B sequencing result (methylation) at CpG site #245,SW620 treated,26
same,SCNN1B sequencing result (methylation) at CpG site #267,SW620 treated,67
same,SCNN1B sequencing result (methylation) at CpG site #295,SW620 treated,23
